According to US20260117274A1, “ORTHOGONALLY CROSSLINKED PROTEINS, METHODS OF MAKING, AND USES THEREOF” (The Research Foundation for The State University of New York, priority 2022, published 2026):

Assays:
[1] = cited from earlier work
[2] = NMR-based stability assay toward glutathione; type: physicochemical; conditions: 10 mM glutathione in PBS for 3 days
From the text: We envisioned this acyl transfer-based crosslinking could proceed under neutral conditions if we can identify an appropriate genetically encoded leaving group. To this end, we considered a panel of azoles with pKa values ranging from 19.8 to 8.2, and a varying degree of leaving group effect (FIG. 1a). […] Thus, we designed a series of N-carboxy-4-aryl-1,2,3-triazole-containing lysines (CATK-1-7) as well as three analogous triazolyl lysines, CATK-8, -8a, and -9, for comparison purposes (FIG. 1b). For the synthesis of CATK-1-9, the critical step involved the triphosgene-mediated coupling of aryl- or alkyl-substituted triazoles with a protected lysine. While there was no apparent selectivity for N^2-carbamoylated CATKs, the two regioisomers can be readily separated by flash chromatography. After deprotection, CATK-1-9 were obtained in 7-52% yields. […] Since analogous 1,2,4-triazoles have also been used in designing small-molecule probes for serine hydrolases, we synthesized 1,2,4-triazole-based CATK-9 in four steps with an overall yield of 43%.
In our efforts to identify genetically encoded amino acids that are stable under physiological conditions yet reactive upon photoactivation or through proximity effect, we were intrigued by β-lactam, a venerable chemical moiety found in penicillin and other β-lactam class of antibiotics. […]

wild-type PylRS = target: T1, wild-type PylRS (Methanosarcina mazei, UniProt Q8PWY1); assay: Fluorescence-based detection of BeLaK incorporation into sfGFP-Q204TAG; type: cell-based; conditions: 1 mM BeLaK
T1 construct: expressed in transfected cells; host or cells: E. coli BL21(DE3) transformed with pEVOL-PylRS
T1 sequence (Q8PWY1 whole entry): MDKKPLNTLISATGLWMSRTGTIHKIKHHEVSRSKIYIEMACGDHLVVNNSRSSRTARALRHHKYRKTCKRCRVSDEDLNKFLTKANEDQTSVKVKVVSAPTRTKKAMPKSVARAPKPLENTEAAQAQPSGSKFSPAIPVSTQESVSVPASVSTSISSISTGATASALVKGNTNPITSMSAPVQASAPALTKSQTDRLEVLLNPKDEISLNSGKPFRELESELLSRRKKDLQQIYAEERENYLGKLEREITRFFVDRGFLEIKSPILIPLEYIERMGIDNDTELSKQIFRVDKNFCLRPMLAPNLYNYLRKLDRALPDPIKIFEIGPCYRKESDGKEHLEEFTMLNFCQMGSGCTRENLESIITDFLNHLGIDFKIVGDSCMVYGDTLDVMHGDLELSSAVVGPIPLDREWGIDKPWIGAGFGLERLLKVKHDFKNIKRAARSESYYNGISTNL
From the text: (§1) To identify an aminoacyl-tRNA synthetase/tRNA pair for charging two phenylalanine derivatives, we screened our collection of pyrrolysine-tRNA synthetases (PylRS) (Table 1) using superfolder green fluorescent protein bearing an amber codon at position-204 (sfGFP-Q204TAG) as a reporter without success (FIG. 37). In parallel, to our delight, we found wild-type PylRS efficiently charges BeLaK into sfGFP-Q204TAG, with the cell lysate showing a 75-fold increase in fluorescence over the background, similar to BocK, a known substrate for wild-type PylRS (FIG. 32b). We also obtained the crystal structure of a protected BeLaK analog S11 (FIG. 38). We note the lactam ring forms an intramolecular H-bond with the lysine ε-N—H (FIG. 32a), mimicking the pyrroline ring in pyrrolysine—the native substrate of PylRS.
Site-specific incorporation of BeLaK into sfGFP. BL21(DE3) cells (50 μL) were co-transformed with the pET-sfGFP-Q204TAG and pEVOL-PylRS plasmids using the heat shock method. The cells were recovered in 900 μL SOC at 37° C. for 1 hour before plating onto a Luria-Bertani (LB) agar plate containing 100 μg/mL ampicillin and 34 μg/mL chloramphenicol. A single colony from the plate was used to inoculate 6 mL LB broth containing 100 μg/mL ampicillin and 34 μg/mL chloramphenicol. […] The supernatant was directly used for fluorescence tests after sonication and centrifugation. […]

[3] = Stability under bacterial culture conditions (intact mass of sfGFP mutants)
From the text: (§2) To identify pyrrolysine-tRNA synthetase (PylRS) variants that can charge CATKs, we co-transformed BL21(DE3) cells with two plasmids: pEVOL-PylRS encoding PylRS and tRNACUA, and pET-sfGFP-Q204TAG encoding sfGFP bearing an amber codon. We screened a panel of PylRS variants (Table 1), and found one carrying Y306V, L309A, C348F, and Y384F mutations, hereafter referred to as CATKRS, can charge CATK-1, -2, -4, and -7 site-specifically into sfGFP (FIGS. 2b and 10). The incorporations were also confirmed by SDS-PAGE (FIG. 10) and QTOF-LC/MS analyses (FIGS. 2c and 11). Some amount of GSH adducts (˜30%) were detected, presumably due to the high reactivity of CATKs at position-204, a site on sfGFP that is completely solvent exposed.
as §1, with “We note the lactam ring forms an intramolecular H-bond with the lysine ε-N—H (FIG. 32a), mimicking the pyrroline ring in pyrrolysine—the native substrate of PylRS.” left out

HEK293T cells = type: cell-based; conditions: human, 24 h
From the text: (§3) To examine whether CATKs are compatible with genetic code expansion in mammalian cells, we first performed a cell viability assay by treating HEK293T cells with CATK-1 and -2 at various concentrations. […] We then cotransfected HEK293T cells with two plasmids: one encodes CATKRS/tRNA^Pyl, and the other encodes the mCherry-TAG-EGFP-HA reporter. The transfected cells were allowed to grow in DMEM supplemented with 10% FBS in the absence or presence of CATK-1.
Cell viability assay. One hundred μL exponentially growing HEK293T cells were seeded into a 96-well plate at a density of 5×10^5 cells per ml. After 24 h, the cells were treated with varying concentrations of CATK amino acids and then incubated at 37° C. for 24 h. Then, 10 μL CCK-8 solution (Dojindo) was added to each well and the cells were further incubated in 37° C. incubator for 1 h. The plates were read immediately using Biotek microtiter plate reader at 450 nm.

CATKRS = target: T2, CATKRS (Methanosarcina mazei, UniProt Q8PWY1, C348F/L309A/Y306V/Y384F); assay: Fluorescence-based detection of CATK incorporation into sfGFP-Q204TAG in BL21(DE3) cells; type: cell-based; conditions: 1 mM CATK
T2 construct: expressed in transfected cells; host or cells: E. coli BL21(DE3) transformed with pEVOL-CATKRS
T2 sequence (Q8PWY1 whole entry Y306V/L309A/C348F/Y384F): as the sequence (Q8PWY1 whole entry) above, with Y306V, L309A, C348F, Y384F counted along it
From the text: as §2
Site-specific incorporation of CATK into sfGFP. BL21(DE3) cells (50 μL) were co-transformed with the pET-sfGFP-Q204TAG and pEVOL-CATKRS plasmids using the heat shock method. The cells were recovered in 900 μL SOC at 37° C. for 1 hour before plating onto a Luria-Bertani (LB) agar plate containing 100 μg/mL ampicillin and 34 μg/mL chloramphenicol. A single colony from the plate was used to inoculate 6 mL LB broth containing 100 μg/mL ampicillin and 34 μg/mL chloramphenicol. One hundred twenty […] overnight culture was used to inoculate 12 mL LB broth containing the same concentrations of antibiotics. […] The culture was divided into two 6-mL portions. […] The cultures were incubated in an incubator-shaker (37° C., 280 rpm) for 8 hours. […] The supernatant was directly used for fluorescence tests after sonication and centrifugation. […] The mixture was incubated for 2 hours with gentle shaking.

[4] = tested on: mCherry-TAG-EGFP-HA reporter; assay: Site-specific incorporation into mCherry-TAG-EGFP in HEK293T cells; type: cell-based, Human; conditions: CATKRS/tRNA^Pyl, 0.5 mM CATK-1, fluorescence microscopy and western blot
From the text: as §3
Site-specific incorporation of CATK-1 into mCherry-TAG-EGFP in mammalian cells. Human Embryonic Kidney 293T (HEK293T) cells were seeded in a 12-well plate and grown in DMEM supplemented with 10% FBS (HyClone™ GE Healthcare Life Sciences) and 10 μg/mL Gentamycin (Gibco) and 2 μg/mL Plasmocin at 37° C., 5% CO2 until ˜90% confluency. The medium was replaced with DMEM, and cells were transfected by using polyethylenimine (Sigma-Aldrich) in Opti-MEM® (Gibco) with two plasmids (one encoding CATKRS/tRNAPyl CUA pair and another encoding mCherry-TAG-EGFP-HA). Six hours post-transfection, the medium was replaced with fresh DMEM with 10% FBS in the presence or absence of 0.5 mM CATK-1. After 24 hours, live cell images were recorded using the Lionheart™ FX automated microscope (BioTek). The cells were lysed by modified RIPA buffer (25 mM Tris HCl, pH 7.4, 150 mM NaCl, 1% NP-40, 1% sodium deoxycholate, 0.1% SDS, 1 mM EDTA, 1 mM PSMF). […]

Compound	stability after incubation with glutathione [2]	site-specific charging into sfGFP by CATKRS (CATKRS)	also measured
c1cn[nH]n1 [2H-1,2,3-trizole]			pKa [1]: 9.4
N[C@@H](Cc1ccc(N2CCC2=O)cc1)C(=O)O [BeLaF-2, (S)-2-amino-3-(4-(2-oxoazetidin-1-yl)phenyl)propanoic acid]	remained intact		
N[C@@H](CCCCNC(=O)N1CCC1=O)C(=O)O [BeLaK, N^6-(2-Oxoazetidine-1-carbonyl)-L-lysine]	remained intact		increase in fluorescence of cell lysate over the background (wild-type PylRS): 75 fold; stability under bacterial culture conditions [3]: stable under bacterial culture conditions
N[C@@H](CCCCNC(=O)n1ncc(-c2ccccc2)n1)C(=O)O [CATK-1, N^6-(4-Phenyl-2H-1,2,3-triazole-2-carbonyl)-L-lysine]		can charge	concentrations at which cytotoxicity was not detected (HEK293T cells): ≤ 500 µM; incorporation into mCherry-TAG-EGFP-HA [4]: successful CATK-1 incorporation
N[C@@H](CCCCNC(=O)n1ncc(-c2cccs2)n1)C(=O)O [CATK-4, N^6-(4-(Thiophen-2-yl)-2H-1,2,3-triazole-2-carbonyl)-L-lysine]		can charge	
Cn1cccc1-c1cnn(C(=O)NCCCC[C@H](N)C(=O)O)n1 [CATK-7, N^6-(4-(1-Methyl-1H-pyrrol-2-yl)-2H-1,2,3-triazole-2-carbonyl)-L-lysine]		can charge	
